Data as given in article PMC11218721, “Receptor-Targeted Peptide Conjugates Based on Diphosphines Enable Preparation of ^99mTc and ^188Re Theranostic Agents for Prostate Cancer” (Journal of Nuclear Medicine, 2024).

How the values were obtained:
[1] = test system: DU145-PSMA+ prostate cancer cells (DU145 cells transfected to express PSMA receptor); assay: Radiotracer uptake in DU145-PSMA+ prostate cancer cells; format: cell-based; details: for cellular localization of radioactivity in DU145-PSMA+ cells over time: 15, 30, 60 and 120 min, surface-bound vs internalized fraction; for uptake in DU145-PSMA+ cells: 100 kBq radiotracer, 1 h incubation, percentage added radioactivity, mean ± SD, n = 3–4 biologic repeats in triplicate; for uptake in DU145-PSMA+ cells / uptake in DU145-PSMA+ cells with PMPA block: 37°C; for uptake in DU145-PSMA+ cells with PMPA block: coincubated with PSMA inhibitor PMPA, 1 h
Description: (§1) Solutions containing radiotracer (100 kBq in 8–12 μL of phosphate-buffered saline, >95% radiochemical purity) were added to DU145-PSMA+ or LNCaP prostate cancer cells ([22]), and the cells were incubated at 37°C for 1 h. Nonspecific uptake was determined using non–PSMA-expressing cells (DU145, PC3) or by blocking PSMA-expressing cells (DU145-PSMA+, LNCaP) with 2-phosphonomethyl pentanedioic acid (PMPA). After incubation, the cells were washed and samples collected for radioactivity counting. Uptake and localization of ^99mTc radiotracers were measured over time (15, 30, 60, and 120 min) in DU145-PSMA+ or LNCaP cells (supplemental materials).
(§2) To assess the specificity of the new radiotracers for PSMA, [^99mTc]Tc-DP1-PSMAt and [^99mTc]Tc-DP2-PSMAt (100 kBq) were each incubated with DU145-PSMA+ prostate cancer cells (DU145 cells transfected to express PSMA receptor) ([22]). After 1 h of incubation, uptake of each radiotracer was quantified. […] In LNCaP cells, uptake of [^99mTc]Tc-DP1-PSMAt and [^99mTc]Tc-DP2-PSMAt measured 3.7 ± 1.2 %AR and 3.0 ± 0.8 %AR, respectively, whereas uptake of both radiotracers in PC3 cells measured less than 0.3 %AR.
(§3) FIGURE 2. (A) Uptake of radiotracers in PSMA-positive and PSMA-negative prostate cancer cells. (B) Time course uptake and localization of ^99mTc radiotracers in DU145-PSMA cells and LNCaP cells. Data are presented as mean ± SD; n = 3–4 biologic repeats performed in triplicate.

[2] = test system: LNCaP prostate cancer cells, which natively express PSMA; assay: Radiotracer uptake in LNCaP prostate cancer cells; format: cell-based; details: for cellular localization of radioactivity in LNCaP cells over time: 15, 30, 60 and 120 min, surface-bound vs internalized fraction; for uptake in LNCaP cells: 100 kBq radiotracer, 1 h incubation, percentage added radioactivity, mean ± SD, n = 3–4 biologic repeats in triplicate; for uptake in LNCaP cells / uptake in LNCaP cells with PMPA block: 37°C; for uptake in LNCaP cells with PMPA block: blocked with PMPA, 1 h
Description: as §1, §2, §3

[3] = test system: parental DU145 cells that do not express PSMA; assay: Radiotracer uptake in parental DU145 cells (non-PSMA-expressing); format: cell-based; details: 100 kBq, 1 h, 37°C
Description: as §1, §2, §3

[4] = test system: PC3 cells; assay: Radiotracer uptake in PC3 cells (non-PSMA-expressing); format: cell-based; details: 100 kBq, 1 h, 37°C; cells do not express PSMA
Description: as §1, §2, §3

[5] = test system: DU145-PSMA+ xenograft tumors; assay: Ex vivo biodistribution in SCID/beige mice bearing DU145-PSMA+ xenograft tumors; details: 2 h after injection; for effect of PMPA coadministration on kidney retention (in words): SCID/beige mice bearing DU145-PSMA+ tumors; for mean difference in spleen retention, radiotracer only vs with PMPA / mean difference in tumor uptake, radiotracer only vs with PMPA: SCID/beige mice; for mean difference in tumor uptake, radiotracer only vs with PMPA: DU145-PSMA+ tumors
Description: (§4) All animal experiments were ethically reviewed by an Animal Welfare and Ethical Review Board at either King’s College London or Barts Cancer Institute and were performed in accordance with the Animals (Scientific Procedures) Act 1986 U.K. Home Office regulations governing animal experimentation. Subcutaneous prostate cancer DU145-PSMA+ or DU145 xenografts were produced in SCID/beige mice (male, 7–12 wk old). Subcutaneous LNCaP prostate cancer xenografts were produced in athymic nude mice (Crl:NU(NCr)-Foxn1^nu, male, 6–7 wk old). SPECT/CT and biodistribution studies using ^99mTc and ^188Re radiotracers were performed once a tumor had reached an appropriate size (supplemental materials).
The biodistributions of [^99mTc]Tc-DP1-PSMAt and [^99mTc]Tc-DP2-PSMAt were assessed in male SCID/beige mice bearing DU145-PSMA+ xenograft tumors (Fig. 3). Each mouse was administered either [^99mTc]Tc-DP1-PSMAt or [^99mTc]Tc-DP2-PSMAt and euthanized at 2 h after injection (n = 5), followed by organ harvesting for ex vivo radioactivity counting.
(§5) FIGURE 3. (A) Biodistribution (2 h after injection) of SCID/beige mice bearing DU145-PSMA+ prostate cancer tumors, administered either ^99mTc or ^188Re radiotracers intravenously. To assess specificity of radiotracer uptake, additional groups of mice were also coadministered radiotracer and PMPA (Supplemental Tables 3 and 4). (B) Whole-body SPECT/CT maximum-intensity projections of SCID/beige mice bearing either DU145-PSMA+ tumors or DU145 tumors, administered either [^99mTc]Tc-DP1-PSMAt or [^99mTc]Tc-DP2-PSMAt, 2 h after injection. To inhibit uptake in DU145-PSMA+ tumors, animals were also coadministered PMPA.
To assess the specificity of each radiotracer, separate groups of animals, also bearing DU145-PSMA+ tumors, were coadministered either [^99mTc]Tc-DP1-PSMAt and PMPA or [^99mTc]Tc-DP2-PSMAt and PMPA to inhibit PSMA-mediated uptake of radiotracer (n = 5). […] For [^99mTc]Tc-DP1-PSMAt, coadministration decreased uptake to 0.91 ± 0.29 %ID/g in tumors (compared with administration of [^99mTc]Tc-DP1-PSMAt only: mean difference of 17.12 %ID/g, P = 4 × 10^−4). For [^99mTc]Tc-DP2-PSMAt, coadministration decreased uptake to 0.76 ± 0.45 %ID/g in tumors (compared with administration of [^99mTc]Tc-DP2-PSMAt only: mean difference of 28.62 %ID/g, P = 5 × 10^−4).

[6] = test system: DU145-PSMA+ tumors; assay: SPECT/CT imaging of mice bearing DU145-PSMA+ tumors; format: in vivo, SCID/beige mice; details: radiotracer only, 2 h and 24 h after injection
Description: as §4
as §5, with “PMPA. […]” for “PMPA.”

SMILES | cellular localization of radioactivity in DU145-PSMA+ cells over time [1] | uptake in DU145-PSMA+ cells [1] [%AR] | uptake in DU145-PSMA+ cells with PMPA block [1] | cellular localization of radioactivity in LNCaP cells over time [2] | uptake in LNCaP cells [2] [%AR] | uptake in LNCaP cells with PMPA block [2] | uptake in parental DU145 cells [3] | uptake in PC3 cells [4] | effect of PMPA coadministration on kidney retention (in words) [5] | mean difference in spleen retention, radiotracer only vs with PMPA [5] [%ID/g] | mean difference in tumor uptake, radiotracer only vs with PMPA [5] [%ID/g] | tumor delineation in SPECT/CT scans [6]
O=C(O)CC[C@H](NC(=O)N[C@@H](CCCCNC(=O)CCOCCOCCOCCOCCNC(=O)/C(=C(\C(=O)O)P(c1ccccc1)c1ccccc1)P(c1ccccc1)c1ccccc1)C(=O)O)C(=O)O [[^99mTc]Tc-DP1-PSMAt] [metal not drawn] | most cell-associated radioactivity was found in the internalized cell fraction | 12.4 ± 2.8 | could be blocked with PMPA | most cell-associated radioactivity was found in the internalized cell fraction | 3.7 ± 1.2 | could also be blocked with PMPA | negligible uptake | less than 0.3 %AR | significantly decreased | 11.8 | 17.12 | tumors could be clearly delineated
Cc1ccc(P(/C(C(=O)O)=C(/C(=O)NCCOCCOCCOCCOCCC(=O)NCCCC[C@H](NC(=O)N[C@@H](CCC(=O)O)C(=O)O)C(=O)O)P(c2ccc(C)cc2)c2ccc(C)cc2)c2ccc(C)cc2)cc1 [[^99mTc]Tc-DP2-PSMAt] [metal not drawn] | most cell-associated radioactivity was found in the internalized cell fraction | 7.8 ± 1.3 | could be blocked with PMPA | most cell-associated radioactivity was found in the internalized cell fraction | 3.0 ± 0.8 | could also be blocked with PMPA | negligible uptake | less than 0.3 %AR | much less pronounced | 7.4 | 28.62 | tumors could be clearly delineated
